System: CD-138 positive MM cells
Assay: Apoptosis (Annexin V) in bone marrow cells flushed from mice injected with 5TGM1 cells
Assay type: cell-based
Conditions: 24 hours
Experimental: The effect of monensin was tested in MM mice in vivo. To this end bone marrow cells were flushed from C57BL/KalwRij mice injected with 5TGM1 cells. Cells harvested from these mice included MM cells and others, found normally in mouse bone marrow.

CC[C@@]1([C@@H]2O[C@@H]([C@H]3O[C@@](O)(CO)[C@H](C)C[C@@H]3C)C[C@@H]2C)CC[C@H]([C@]2(C)CC[C@]3(C[C@H](O)[C@@H](C)[C@@H]([C@@H](C)[C@@H](OC)[C@H](C)C(=O)O)O3)O2)O1 [monensin]
cell death of CD-138 positive MM cells: comparable to that of bortezomib

Source: US20200268707A1, “METHODS OF MODULATING PROTEIN EXOCYTOSIS AND USES OF SAME IN THERAPY” (Yeda Research and Development Co. Ltd., priority 2016, published 2020)
